# According to PubChem BioAssay AID2060894 (Molecular Pharmacology Branch, DTP, NCI, 2025):
# Tested on: K12877-001-R-J1-PDC complex spheroid viability
# Experiment: Anticancer human tumor K12877-001-R-J1-PDC patient-derived lung adenocarcinoma cell line growth inhibition [RAS]
# Settings: for IC50: curve of first compound; for viability, T/C: stronger effect = lower value
# Outline: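 Multi-cell-type spheroids: tumor cells plus HUVEC endothelial cells and mesenchymal stem cells. RAS-pathway inhibitors were combined with targeted agents, each dosed in half-log steps down from clinical Cmax, or from 10 microM when Cmax was unknown.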
# [1] = second compound 0.000949 µM, first compound 0.0316 µM
# [2] = second compound 0.000949 µM, first compound 0.1 µM
# [3] = second compound 0.000949 µM, first compound 0.316 µM
# [4] = second compound 0.000949 µM, first compound 1 µM
# [5] = second compound 0.003 µM, first compound 0.0316 µM
# [6] = second compound 0.003 µM, first compound 0.1 µM
# [7] = second compound 0.003 µM, first compound 0.316 µM
# [8] = second compound 0.003 µM, first compound 1 µM
# [9] = second compound 0.00949 µM, first compound 0.0316 µM
# [10] = second compound 0.00949 µM, first compound 0.1 µM
# [11] = second compound 0.00949 µM, first compound 0.316 µM
# [12] = second compound 0.00949 µM, first compound 1 µM
# [13] = second compound 0.03 µM, first compound 0.0316 µM
# [14] = second compound 0.03 µM, first compound 0.1 µM
# [15] = second compound 0.03 µM, first compound 0.316 µM
# [16] = second compound 0.03 µM, first compound 1 µM
# [17] = second compound 0.0949 µM, first compound 0.0316 µM
# [18] = second compound 0.0949 µM, first compound 0.1 µM
# [19] = second compound 0.0949 µM, first compound 0.316 µM
# [20] = second compound 0.0949 µM, first compound 1 µM
# [21] = second compound 0.3 µM, first compound 0.0316 µM
# [22] = second compound 0.3 µM, first compound 0.1 µM
# [23] = second compound 0.3 µM, first compound 0.316 µM
# [24] = second compound 0.3 µM, first compound 1 µM
# [25] = second compound 0.000949 µM, first compound 3.16 µM
# [26] = second compound 0.000949 µM, first compound 10 µM
# [27] = second compound 0.003 µM, first compound 3.16 µM
# [28] = second compound 0.003 µM, first compound 10 µM
# [29] = second compound 0.00949 µM, first compound 3.16 µM
# [30] = second compound 0.00949 µM, first compound 10 µM
# [31] = second compound 0.03 µM, first compound 3.16 µM
# [32] = second compound 0.03 µM, first compound 10 µM
# [33] = second compound 0.0949 µM, first compound 3.16 µM
# [34] = second compound 0.0949 µM, first compound 10 µM
# [35] = second compound 0.3 µM, first compound 3.16 µM
# [36] = second compound 0.3 µM, first compound 10 µM
# 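Further: spheroids exposed to agents for one week before readout.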
# 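Wherever viability, T/C is given: tumour cells co-cultured with HUVEC and mesenchymal stem cells in spheroids.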
smiles,measurement,setting,value
CCN1CCN(Cc2ccc(Nc3ncc(F)c(-c4cc(F)c5nc(C)n(C(C)C)c5c4)n3)nc2)CC1 + CCn1c(-c2cccnc2C(C)OC)c2c3cc(ccc31)N1CCOC(CC(NC(=O)C(C(C)C)N(C)C(=O)C3(F)CCN(C(=O)C#CC(C)(C)N(C)C)CC3)C(=O)N3CCCC(N3)C(=O)OCC(C)(C)C2)C1,IC50,second compound 0.000949 µM,286 nM
same,IC50,second compound 0.003 µM,229 nM
same,IC50,second compound 0.00949 µM,154 nM
same,IC50,second compound 0.03 µM,146 nM
same,IC50,second compound 0.0949 µM,132 nM
same,IC50,second compound 0.3 µM,160 nM
same,"viability, T/C","second compound 0.000949 µM, first compound 0.00316 µM",73.5%
same,"viability, T/C","second compound 0.000949 µM, first compound 0.01 µM",80.4%
same,"viability, T/C",[1],74.3%
same,"viability, T/C",[2],61.5%
same,"viability, T/C",[3],50.1%
same,"viability, T/C",[4],31.5%
same,"viability, T/C","second compound 0.003 µM, first compound 0.00316 µM",71.8%
same,"viability, T/C","second compound 0.003 µM, first compound 0.01 µM",76.9%
same,"viability, T/C",[5],68.8%
same,"viability, T/C",[6],69.9%
same,"viability, T/C",[7],42.3%
same,"viability, T/C",[8],28.9%
same,"viability, T/C","second compound 0.00949 µM, first compound 0.00316 µM",66%
same,"viability, T/C","second compound 0.00949 µM, first compound 0.01 µM",77.1%
same,"viability, T/C",[9],66.5%
same,"viability, T/C",[10],56.8%
same,"viability, T/C",[11],39.2%
same,"viability, T/C",[12],34%
same,"viability, T/C","second compound 0.03 µM, first compound 0.00316 µM",74.2%
same,"viability, T/C","second compound 0.03 µM, first compound 0.01 µM",76.5%
same,"viability, T/C",[13],69.6%
same,"viability, T/C",[14],51.8%
same,"viability, T/C",[15],45.4%
same,"viability, T/C",[16],36.3%
same,"viability, T/C","second compound 0.0949 µM, first compound 0.00316 µM",76.8%
same,"viability, T/C","second compound 0.0949 µM, first compound 0.01 µM",65.5%
same,"viability, T/C",[17],58.5%
same,"viability, T/C",[18],61.6%
same,"viability, T/C",[19],36.4%
same,"viability, T/C",[20],25.4%
same,"viability, T/C","second compound 0.3 µM, first compound 0.00316 µM",67.2%
same,"viability, T/C","second compound 0.3 µM, first compound 0.01 µM",59.1%
same,"viability, T/C",[21],59.3%
same,"viability, T/C",[22],58%
same,"viability, T/C",[23],39.3%
same,"viability, T/C",[24],27.4%
C[C@@H](NC(=O)c1ncnc(N)c1Cl)c1ncc(C(=O)Nc2cc(C(F)(F)F)c(Cl)cn2)s1 + CCn1c(-c2cccnc2C(C)OC)c2c3cc(ccc31)N1CCOC(CC(NC(=O)C(C(C)C)N(C)C(=O)C3(F)CCN(C(=O)C#CC(C)(C)N(C)C)CC3)C(=O)N3CCCC(N3)C(=O)OCC(C)(C)C2)C1,IC50,second compound 0.000949 µM,> 10000 nM
same,IC50,second compound 0.003 µM,> 10000 nM
same,IC50,second compound 0.00949 µM,> 10000 nM
same,IC50,second compound 0.03 µM,> 10000 nM
same,IC50,second compound 0.0949 µM,> 10000 nM
same,IC50,second compound 0.3 µM,> 10000 nM
same,"viability, T/C",[1],84.5%
same,"viability, T/C",[2],84.7%
same,"viability, T/C",[3],77.3%
same,"viability, T/C",[4],85.3%
same,"viability, T/C",[25],74.4%
same,"viability, T/C",[26],82.7%
same,"viability, T/C",[5],80.2%
same,"viability, T/C",[6],79.2%
same,"viability, T/C",[7],72.6%
same,"viability, T/C",[8],82%
same,"viability, T/C",[27],91.2%
same,"viability, T/C",[28],76.8%
same,"viability, T/C",[9],84.3%
same,"viability, T/C",[10],74.9%
same,"viability, T/C",[11],72%
same,"viability, T/C",[12],73.4%
same,"viability, T/C",[29],81.3%
same,"viability, T/C",[30],78.8%
same,"viability, T/C",[13],80.3%
same,"viability, T/C",[14],81.1%
same,"viability, T/C",[15],71.3%
same,"viability, T/C",[16],88.2%
same,"viability, T/C",[31],89.9%
same,"viability, T/C",[32],87.5%
same,"viability, T/C",[17],79.5%
same,"viability, T/C",[18],77.8%
same,"viability, T/C",[19],78.4%
same,"viability, T/C",[20],75.3%
same,"viability, T/C",[33],89.7%
same,"viability, T/C",[34],72%
same,"viability, T/C",[21],72%
same,"viability, T/C",[22],71.7%
same,"viability, T/C",[23],64.3%
same,"viability, T/C",[24],69.8%
same,"viability, T/C",[35],69.3%
same,"viability, T/C",[36],52.9%
Cc1nc(N2CCC3(CC2)COC(C)C3N)c(CO)nc1Sc1ccnc(N)c1Cl (stereo unspecified) + CCn1c(-c2cccnc2C(C)OC)c2c3cc(ccc31)N1CCOC(CC(NC(=O)C(C(C)C)N(C)C(=O)C3(F)CCN(C(=O)C#CC(C)(C)N(C)C)CC3)C(=O)N3CCCC(N3)C(=O)OCC(C)(C)C2)C1,IC50,second compound 0.000949 µM,6230 nM
same,IC50,second compound 0.003 µM,1850 nM
same,IC50,second compound 0.00949 µM,2630 nM
same,IC50,second compound 0.03 µM,875 nM
same,IC50,second compound 0.0949 µM,1200 nM
same,IC50,second compound 0.3 µM,424 nM
same,"viability, T/C",[1],83.6%
same,"viability, T/C",[2],71.1%
same,"viability, T/C",[3],71.5%
same,"viability, T/C",[4],62.5%
same,"viability, T/C",[25],52.8%
same,"viability, T/C",[26],47.3%
same,"viability, T/C",[5],73.6%
same,"viability, T/C",[6],66.2%
same,"viability, T/C",[7],69.8%
same,"viability, T/C",[8],55.6%
same,"viability, T/C",[27],45.6%
same,"viability, T/C",[28],44%
same,"viability, T/C",[9],76.4%
same,"viability, T/C",[10],76%
same,"viability, T/C",[11],57.8%
same,"viability, T/C",[12],57.4%
same,"viability, T/C",[29],50.2%
same,"viability, T/C",[30],42.1%
same,"viability, T/C",[13],83.2%
same,"viability, T/C",[14],73.5%
same,"viability, T/C",[15],59.2%
same,"viability, T/C",[16],49.4%
same,"viability, T/C",[31],40.7%
same,"viability, T/C",[32],36.5%
same,"viability, T/C",[17],72.6%
same,"viability, T/C",[18],70.8%
same,"viability, T/C",[19],58.3%
same,"viability, T/C",[20],48.5%
same,"viability, T/C",[33],46.4%
same,"viability, T/C",[34],33.8%
same,"viability, T/C",[21],57.1%
same,"viability, T/C",[22],67.9%
same,"viability, T/C",[23],53.3%
same,"viability, T/C",[24],38.3%
same,"viability, T/C",[35],37.5%
same,"viability, T/C",[36],31.2%
